Measurements published in patent US9877993B2, “Composition for cognitive and cosmetic purposes” (BIOTROPICS MALAYSIA BERHAD, priority 2012, dated 2018).
Like-named read-outs stand apart in the source and are kept apart here.

Columns and labels:
scopolamine treated mice = experiment: Barnes maze, scopolamine induced deficits in learning and memory; format: in vivo, C57BL/6 mice
Excerpt: The animals are placed on an elevated, open, circular platform. The animal is exposed to intense light, or to a loud noise. In response to this intense stimulation the animal searches for shelter and enters one of the holes around the platform. Although the device was originally designed to be used with rats, soon it experienced modifications in order to be used with mice as well. Indeed, the device has been considered appropriate for this species because of its ability to find and escape through small holes.
Scopolamine, a muscarinic cholinergic antagonist, is known to cause impairments in Barnes maze testing. These impairments can be reversed by increasing cholinergic tone by the administration of cholinesterase inhibitors such as donepezil.
The scopolamine induced deficits in learning were evidenced by the increase in both total and primary errors, total and primary latency and total and primary path length. The Barnes mazes testing involves the parameters as set forth below.
Primary Path Length (cm): The distance moved by the subject before first contact with the escape hole. First contact is defined as the point of the nose touching the escape hole.
Total Path Length (cm): The distance moved by the subject before completing the task. Completion of task is defined as the entering of the subject into escape box. This ends the trial.
Primary Errors: The count of the number of errors made by the subject before first contact with the escape hole. Any contact of the nose point to a non-escape hole is considered as an error. Multiple contacts to the same non-escape hole are counted as multiple errors under this context. Total Errors: The count of the number of errors made by the subject throughout the trial. Any contact of the nose point to a non-escape hole is considered as an error. Multiple contacts to the same non-escape hole are counted as multiple errors under this context. Primary Latency (sec): The latency to the first contact with the escape hole by the nose point of the subject. Total Latency (sec): The latency for subject to complete the task. Completion of task is defined as the entering of the subject into escape box, which ends the trial. (i) Test Article
The test articles, propriety Polygonum minus extract and commercially available Ginkgo biloba extract (comparator extract) were used in this study. These extracts were prepared and stored for the project to the supplier's specifications. The doses of the extract chosen for the study were identified by the supplier A 30× stock suspension was prepared every week for each article. This was aliquot into batches which were then stored at 4° C. throughout the week. The stock suspension was diluted with ultra-pure water to working concentration every day before the dosing, and discarded after the dosing. Oral gavage needles were filled with the required amounts of suspension. Care was taken to ensure the even distribution of particles by vortex-mixing the suspensions before preparation in individual syringes, and also by syringe-mixing the diluted test article. The dose and time of scopolamine administration has been previously shown to produce deficits in spatial navigation tasks in rodents. The dose was increased from the initially reported 0.3 mg/kg to 0.5 mg/kg, as the higher dose would produce a more reliable deficit.
2-6 month-old male C57BL/6 mice (20-25 g), (n=12 to 14) were supplied by BioLASCO (Taiwan). They were housed in an IVC system (Allentown, USA) under a 12/12-h light/dark (200-300 Lux) cycle (lights on 07:00 h) with free access to food (Labdiet, formulated laboratory chow) and water and humidity keep between 50%-70%. The total animals used for each treatment are shown in the Table 13 below (subjects used for each arm in the experiment).
Chronic treatment via p.o. was conducted with the TEST COMPOUNDS (test dose 1 and 2) as per Table 12 and Table 12 above and CONTROL […] (vehicle and ginkgo) continuously for 19 days. Dosing was given daily at 1800 hr. […]

[1] = test system: Collagenase from Clostridium histolyticum; experiment: Collagenase inhibition bioassay in vitro (EnzChek gelatinase/collagenase kit); format: biochemical
Method: Solvents and reagents: EnzChek™gelatinase/Collagenase Assay kit (E12055, Molecular probes, Invitrogen, USA, Stored at −20° C.) containing: DQ gelatin from pigskin, Flourescein conjugate, 10× reaction buffer, 1,10 Phenanthroline monohydrate, Collagenase from Clostridium histolyticum.
2.5 mg of sample was prepared by dissolving it into 200 μl of DMSO and made up to 10 ml with 1× reaction buffer. Further dilutions were made as required. The enzymatic cleavage of DQ gelatin, Flourescein conjugate releases flourescent peptide. The increase in fluorescence is proportional to proteolytic activity. The digested product form DQ gelatin, Flourescein conjugate is excited with light at 490 nm and the emitted light at 520 nm is detected in a fluorometric plate reader.
Collagenase inhibition assay was carried out as per the kit insert of EnzChek™gelatinase/Collagenase Assay kit (E12055, Molecular probes, Invitrogen, USA). In brief, 80 μl of 1× reaction buffer/vehicle buffer/test solution/positive control of various concentrations, 100 μl of enzyme solution (0.1 units/ml), 20 μl of substrate solution (1 mg/ml) were added and mixed for 15 sec, incubated at 25° C. for 2 hours and read in a fluorescence microplate reader [Fluostar Optima, BMG Labtech, Germany] with the following parameters wherein it was excited at 490 nm, and the emission at 520 nm was recorded by the Costar 96 fluorometric plate reader.
A control reaction was carried out without the test samples respective sample blanking, control blanking and vehicle blanking were done (which contained all reagents except the enzymes). The percentage inhibition was calculated as follows:
[formula] where AFU=arbitrary fluorescence units and IC50 was calculated using log-probit analysis.

[2] = donepezil 1 mg/kg i.p. + scopolamine
[3] = scopolamine 0.5 mg/kg i.p. vs vehicle control treated group
[4] = scopolamine 0.5 mg/kg i.p. vs vehicle treated control mice

For `COc1cc2c(cc1OC)C(=O)C(CC1CCN(Cc3ccccc3)CC1)C2` (stereo not shown) [donepezil], the “Primary and total latency, scopolamine induced deficit” value (scopolamine treated mice; [2]) was “A similar result is obtained”, the “Scopolamine induced deficits in acquisition (learning) phase” value (scopolamine treated mice; [2]) was “attenuated” and the “Path length, scopolamine induced deficit” value (scopolamine treated mice; donepezil 1 mg/kg i.p. + scopolamine 0.5 mg/kg i.p.) was “did not show a scopolamine induced deficit”. For the same compound, the “Probe trial, time spent in target segment (memory deficit)” value (scopolamine treated mice; donepezil 1 mg/kg i.p. + scopolamine, day 5) was “reversed the scopolamine deficit” and the “Total errors, scopolamine induced deficit” value (scopolamine treated mice; donepezil 1 mg/kg i.p. + scopolamine, days one and two) was “deficits for total errors were not seen”.
With `O.c1cnc2c(c1)ccc1cccnc12` [1,10-Phenanthroline monohydrate] the “% inhibition” value [1] was 40.81%, the “% inhibition” value ([1]; 12.5 μM) was 0.00% and the “% inhibition” value ([1]; 25 Mm) was 11.60%. For the same compound, the “% inhibition” value ([1]; 100 Mm) was 88.00% and the IC50 ([1]; log-probit analysis, read-out: IC50 (95% confidence interval)) was 53.2 µM.
With `CN1[C@@H]2C[C@@H](OC(=O)[C@H](CO)c3ccccc3)C[C@H]1[C@@H]1O[C@@H]12` [scopolamine] the “Primary and total latency, learning” value (scopolamine treated mice; scopolamine 0.5 mg/kg i.p. vs vehicle control) was “induces a deficit in learning”, the “Primary path length, performance” value (scopolamine treated mice; [3]) was “decreased performance only on day two” and the “Total path length, days with decreased performance” value (scopolamine treated mice; [3]) was “days one two and three”. For the same compound, the “Primary errors, learning” value (scopolamine treated mice; [4]) was “induced a deficit in learning on day two”, the “Total errors, days with deficit in learning” value (scopolamine treated mice; [4]) was “on days one and two” and the “Probe trial, preference for target segment (memory)” value (scopolamine treated mice; scopolamine 0.5 mg/kg i.p., day 5) was “induced a deficit in memory”.
